Experimental data reported in US20260146044A1, “AROMATIC COMPOUND, PHARMACEUTICAL COMPOSITION CONTAINING SAME, AND USE THEREOF” (Increland, priority 2023, published 2026).
Values belong to the molecule of their own block, whether it stands above or below them.

Key:
[1] = Metabolic stability in mouse liver microsome; conditions: liver microsomes
Experimental: (§1) Blank incubation plates T60 and NCF60 were preheated for 10 min; liver microsome was diluted to 0.56 mg/mL in 100 mM phosphate buffer, 445 μL of the microsome working solution (0.56 mg/mL) was transferred to the preheated “incubation” plates T60 and NCF60, and then the incubation plates T60 and NCF60 were pre-incubated with continuous shaking at 37° C. for 10 min. 54 μL of the liver microsome was transferred to a blank plate, then 6 μL of a NAPDH cofactor was added to the blank plate, and then 180 μL of a quenching solution was added to the blank plate; 5 µL of a composite working solution (100 μM) was added to each of the microsome-containing incubation plates (T60 and NCF60), and the mixture was thoroughly mixed 3 times; 50 μL of a buffer was added to the NCF60 plate, and the mixture was thoroughly mixed 3 times. Timing was started; the plates were incubated with shaking at 37° C. for 60 min; and 180 μL of a quenching solution and 6 μL of the NAPDH cofactor were added to a quenching plate TO. The plates were ensured to be cooled to prevent evaporation. For the T60 plate, the mixture was thoroughly mixed 3 times, and 54 μL of the mixture was immediately transferred to the quenching plate at the time point of 0 min. Then, 44 μL of the NAPDH cofactor was added to the incubation plate (T60). Timing was started; and the plate was incubated with shaking at 37° C. for 60 min. At 5, 15, 30, 45, and 60 min, 180 μL of the quenching solution was added to the quenching plate, mixed once, and then 60 μL of sample was continuously transferred from the plate T60 to the quenching plate at each time point.
(§2) For NCF60, the mixture was mixed once, and at the time point of 60 min, 60 μL of sample was transferred from the NCF60 incubator to the quenching solution-containing quenching plate. All sampling plates were shaken for 10 min, then centrifuged at 4,000 rpm at 4° C. for 20 min. 80 µL of the supernatant was transferred to 240 μL of HPLC water, and mixed using a plate shaker for 10 min.

[2] = tested on: secretion levels of IL-6 in PBMC cells; assay: Inhibition of R848-induced IL-6 secretion in PBMC (IL-6 ELISA); format: cell-based; conditions: human PBMC, 20 h compound pre-incubation, 24 h stimulation
Experimental: This experiment was carried out in RPMI 1640 medium containing 10% FBS/1% penicillin/streptomycin, with each of the compounds at an initial test concentration of 1 μM. The compound DMSO was dissolved to form a stock solution, which was gradiently diluted 4-fold with the culture medium to a 4× working solution concentration. The diluted solution was added to a 96-well plate with 50 μL per well. PBMC (batch No.: HPP20062307, Sichuan Hope Bio-tech Co., Ltd.) cells were counted, and diluted to a concentration of 2×10^6/mL. The diluted cells were added to the above compound-containing 96-well plate with 150 μL per well, fully mixed, and incubated in an incubator with 5% CO2 at 37° C. for 20 h. Then, R848 was further added until a final concentration of […], and the cells were further incubated in the incubator with 5% CO2 at 37° C. for additional 24 h. Then, after centrifugation at 2,000 rpm for 4 min, the supernatant was diluted 110×, and detected using an IL-6 ELISA kit. An OD450 value was read, and converted to an IL-6 concentration based on a standard curve, to calculate an IC50 value by fitting a dose-effect curve using GraphPad 5.0.

[3] = tested on: secretion levels of IL-6 in PBMC cells; assay: Inhibition of LPS+IL-1β-induced IL-6 secretion in PBMC (IL-6 ELISA); format: cell-based; conditions: human PBMC, 24 h compound pre-incubation, 20 h stimulation
Experimental: This experiment was carried out in RPMI 1640 medium containing 10% FBS/1% penicillin/streptomycin, with each of the compounds at an initial test concentration of 1 μM. The compound DMSO was dissolved to form a stock solution, which was gradiently diluted 5-fold with the culture medium to a 4× working solution concentration. The diluted solution was added to a 96-well plate with 50 μL per well. PBMC (batch No.: HPP20062307, Sichuan Hope Bio-tech Co., Ltd.) cells were counted, and diluted to a concentration of 2×10^6/mL. The diluted cells were added to the above compound-containing 96-well plate with 150 μL per well, fully mixed, and incubated in an incubator with 5% CO2 at 37° C. for 24 h. Then, LPS and […] were further added to final concentrations of 10 ng/mL and 20 ng/mL, respectively, and the cells were further incubated in the incubator with 5% CO2 at 37° C. for 20 h. Then, after centrifugation at 2,000 rpm for 4 min, the supernatant was diluted 110×, and detected using an IL-6 ELISA kit. An OD450 value was read, and converted to an IL-6 concentration based on a standard curve, to calculate an IC50 value by fitting a dose-effect curve using GraphPad 5.0.

[4] = Metabolic stability in human liver microsome; conditions: liver microsomes
Experimental: as §1, §2

[5] = target: T1, IRAK4 protein (Homo sapiens, UniProt Q9NWZ3); assay: IRAK4 protein degradation in THP1 cells (Western blot); format: cell-based; conditions: 24 h
T1 construct: Effects of Compounds on IRAK4 Protein Degradation in THP1 Cells; endogenous in cells; host or cells: THP-1 cells
T1 sequence (Q9NWZ3 1-460): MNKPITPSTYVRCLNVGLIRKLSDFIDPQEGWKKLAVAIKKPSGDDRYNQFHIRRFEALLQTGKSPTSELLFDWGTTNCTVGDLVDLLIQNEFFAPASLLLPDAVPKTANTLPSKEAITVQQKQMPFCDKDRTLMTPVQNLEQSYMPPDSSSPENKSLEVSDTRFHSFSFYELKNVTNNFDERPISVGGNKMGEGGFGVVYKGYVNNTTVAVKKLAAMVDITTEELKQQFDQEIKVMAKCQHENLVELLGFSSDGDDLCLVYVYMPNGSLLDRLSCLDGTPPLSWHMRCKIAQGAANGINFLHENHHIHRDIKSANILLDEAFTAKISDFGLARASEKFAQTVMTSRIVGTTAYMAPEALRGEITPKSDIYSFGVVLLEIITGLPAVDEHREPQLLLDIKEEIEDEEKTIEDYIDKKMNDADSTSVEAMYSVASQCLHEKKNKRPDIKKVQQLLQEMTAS
Experimental: THP-1 cells were inoculated into a 96-well cell culture plate, with 5×10^4 cells and 100 μL of a culture medium per well. The cell culture plate was cultured in an incubator with 5% CO2 at 37° C. overnight. 100 nl of a well-prepared compound stock solution and a compound-free DMSO stock solution were respectively added to cells per well. The cell culture plate was incubated in an incubator with 5% CO2 at 37° C. for 24 h. One protease inhibitor tablet and one phosphatase inhibitor tablet were added to 20 mL of a cell lysis buffer, and they were gently mixed until complete dissolution. DTT at a final concentration of 200 mM was added to a 4× sample preparation buffer to prepare a 4× sample preparation working solution. 20× electrophoretic buffer was diluted to 1× with ultrapure water. 20× transfer buffer was diluted to 1× with ultrapure water, and 20% methanol was added. […] IRAK4 protein primary antibody working solution: 20 μl of IRAK4 antibody added to 20 mL of a blocking solution; β-Actin primary antibody working solution: 2 μl of beta-actin (13E5) Rabbit mAb antibody added to 20 mL of a blocking solution. IRAK4 protein secondary antibody working solution: Donkey Anti-Goat IgG H&L (HRP) diluted 1/5,000 in a blocking solution; 3-Actin secondary antibody working solution: Anti-rabbit IgG, RP-linked antibody diluted 1/10,000 in a blocking solution. The cell culture plate was centrifuged at 3,000 rpm for 3 min, and most of the culture medium was carefully pipetted. The cell plate was inverted, and centrifuged at 300 rpm for 30 s. 45 μL of a lysis buffer was added to each well. The mixture was shaken at 300 rpm for 30 s, allowed to stand on ice for 30 min, and pipetted 30 times at 20 min. 6 μL of 4× sample preparation working solution was added to 18 μL of protein supernatant for sample preparation, and the mixture was heated at 70° C. for 10 min. Remaining protein samples were stored at −80° C. In the precast gel, 8 μl of sample was loaded into each well for electrophoresis at a constant voltage of 120 V for about 60 min, transferred using a PVDF membrane at a constant current of 300 mA for 1 h, then blocked with a blocking solution at room temperature for 1 h, and incubated in a primary antibody working solution at 4° C. overnight. The membrane was washed with 1×TBST buffer for 3×10 min. The secondary antibody working solution was incubated at room temperature for 1 h. The membrane was washed with 1×TBST buffer for 3×10 min, and a chromogenic solution was used for exposure and color development.

[6] = Pharmacokinetic experiment on SD rats (iv and ig); format: in vivo; conditions: Sprague-Dawley, rat, plasma; for Cmax: read-out: Peak plasma concentration Cmax; for bioavailability: ig 5.00 mg/kg vs iv 1.00 mg/kg, read-out: Oral bioavailability Fobs (%)
Experimental: Pharmacokinetic experiment on SD rats: in this experiment, two administration modes: oral intragastric administration and tail vein injection were selected. Each of the compounds of the present patented invention was administered at an oral dose of 5 mg/kg at an administration volume of 10 mL/kg. […] Appropriate amounts of Solutol and H2O were proportionally added sequentially, and fully mixed ultrasonically by vortexing, to prepare a clear drug solution at 0.5 mg/mL. ICL004-protodrug was administered by intravenous injection at a dose of 1 mg/kg at an administration volume of 10 mL/kg. Right before use, an appropriate amount of the drug was accurately weighed, to prepare a final volume of 20% PEG 400 and 80% Saline. Appropriate amounts of PEG 400 and Saline were proportionally added sequentially, and fully mixed ultrasonically by vortexing, to prepare a clear drug solution at 0.1 mg/mL.
6 SD rats, each with body weight of 180-220 g, were randomly grouped into 2 groups. After fasting but with free access to water overnight, each […] in the first group was administered by gavage. 200 μL of blood was sampled from its eye socket into an anticoagulant tube respectively at each time point of 15 min, 30 min, 1 h, 2 h, 4 h, 6 h, 8 h, and 24 h after administration. Within one h, each of the blood samples was centrifuged at 10,000 rpm at 4° C. for 20 min (the sample was stored on an ice box prior to the centrifugation), and the supernatant (i.e., the plasma) was stored in a refrigerator at −20° C. for LC-MS/MS analysis. 200 μL of blood was sampled from the eye socket of each […] in the second group into an anticoagulant tube respectively at each time point of 5 min, 15 min, 30 min, 1 h, 2 h, 4 h, 8 h, and 24 h after administration by intravenous injection. Within one h, each of the blood samples was centrifuged at 10,000 rpm at 4° C. for 20 min (the blood sample was stored on an ice box prior to the centrifugation), and the supernatant, i.e., the plasma, was stored in a refrigerator at −20° C. for LC-MS/MS analysis.

[7] = Pharmacokinetic experiment on mice (iv and ig); format: in vivo; conditions: mouse, plasma; for bioavailability: ig 5.00 mg/kg vs iv 1.00 mg/kg, read-out: Oral bioavailability Fobs (%); for Cmax: read-out: Peak plasma concentration Cmax
[8] = po, BALB/c Mice, ig, 5.00 mg/kg

Structure (SMILES): Cn1c(=O)n(C2CCC(=O)NC2=O)c2cccc(C#CCOC3CCN(C[C@H]4CC[C@H](n5cc(NC(=O)c6cnn7ccc(N8C[C@H]9C[C@@H]8CO9)nc67)c(C(F)F)n5)CC4)CC3)c21 (stereo partly drawn) [Positive compound, reference compound]
- half-life at 1 µM [1]: 29.4 min
- IC50 [2]: 38.5 nM
- IC50 [3]: 38.4 nM
- half-life at 1 µM [4]: 39.4 min

Structure (SMILES): Cc1nn(C2CCC(=O)NC2=O)c2cccc(N3CC4CN(C[C@H]5CC[C@H](n6cc7cc(NC(=O)c8cnn9cccnc89)c(N8CCO[C@H](C)C8)cc7n6)CC5)CC4C3)c12 (stereo partly drawn) [TM-55]
- IC50 [2]: 5.09 nM
- DC50 [5]: 4.81 nM
- IC50 [3]: 7.63 nM

Structure (SMILES): Cc1nn(C2CCC(=O)NC2=O)c2cccc(OC3CCN(C[C@H]4CC[C@H](n5cc6cc(NC(=O)c7cnn8cccnc78)c(N7CCOCC7)cc6n5)CC4)CC3)c12 (stereo partly drawn) [TM-56]
- half-life at 1 µM [1]: 70.1 min
- IC50 [3]: 5.49 nM
- half-life at 1 µM [4]: 80.8 min
- AUC ([6]; iv, 1.00 mg/kg): 1900 ng·h/mL
- AUC(0-inf) ([6]; iv, 1.00 mg/kg): 1980 ng·h/mL
- Cmax ([6]; iv, 1.00 mg/kg): 477 ng/mL
- bioavailability ([6]; po): 10.7%
- AUC ([6]; po, ig, 5.00 mg/kg): 1060 ng·h/mL
- AUC(0-inf) ([6]; po, ig, 5.00 mg/kg): 1120 ng·h/mL
- Cmax ([6]; po, ig, 5.00 mg/kg): 96 ng/mL
- bioavailability ([7]; po, ICR Mice): 91.9%
- AUC ([7]; po, ICR Mice, ig, 5.00 mg/kg): 2510 ng·h/mL
- AUC(0-inf) ([7]; po, ICR Mice, ig, 5.00 mg/kg): 2820 ng·h/mL
- Cmax ([7]; po, ICR Mice, ig, 5.00 mg/kg): 220 ng/mL
- AUC ([7]; ICR Mice, iv, 1.00 mg/kg): 524 ng·h/mL
- AUC(0-inf) ([7]; ICR Mice, iv, 1.00 mg/kg): 613 ng·h/mL
- Cmax ([7]; ICR Mice, iv, 1.00 mg/kg): 81 ng/mL

Structure (SMILES): Cc1nn(C2CCC(=O)NC2=O)c2cccc(N3CCC(CN4CCC(N5Cc6cc(NC(=O)c7cnn8cccnc78)c(N(C)C)cc6C5=O)CC4)CC3)c12 (stereo not drawn) [TM-66]
- IC50 [2]: 262 nM
- DC50 [5]: 0.57 nM
- IC50 [3]: 19.4 nM

Structure (SMILES): Cc1nn(C2CCC(=O)NC2=O)c2cccc(N3CCCN(C[C@H]4CC[C@H](n5cc6cc(NC(=O)c7cnn8cccnc78)c(N(C)C)cc6n5)CC4)CC3)c12 (stereo partly drawn) [TM-96]
- DC50 [5]: 0.58 nM
- IC50 [3]: 7.18 nM

Structure (SMILES): Cc1nn(C2CCC(=O)NC2=O)c2cccc(N3CCC4(CC3)CN(C[C@H]3CC[C@H](n5cc6cc(NC(=O)c7cnn8cccnc78)c(N(C)C)cc6n5)CC3)C4)c12 (stereo partly drawn) [TM-101]
- DC50 [5]: < 0.1 nM
- IC50 [3]: 1.17 nM
- AUC ([6]; iv, 1.00 mg/kg): 625 ng·h/mL
- AUC(0-inf) ([6]; iv, 1.00 mg/kg): 674 ng·h/mL
- Cmax ([6]; iv, 1.00 mg/kg): 151 ng/mL
- bioavailability ([6]; po): 11.1%
- AUC ([6]; po, ig, 5.00 mg/kg): 374 ng·h/mL
- AUC(0-inf) ([6]; po, ig, 5.00 mg/kg): 435 ng·h/mL
- Cmax ([6]; po, ig, 5.00 mg/kg): 23 ng/mL
- bioavailability ([7]; po, BALB/c Mice): 20.1%
- AUC [7, 8]: 3370 ng·h/mL
- AUC(0-inf) [7, 8]: 3550 ng·h/mL
- Cmax [7, 8]: 356 ng/mL
- AUC ([7]; BALB/c Mice, iv, 1.00 mg/kg): 3390 ng·h/mL
- AUC(0-inf) ([7]; BALB/c Mice, iv, 1.00 mg/kg): 3520 ng·h/mL
- Cmax ([7]; BALB/c Mice, iv, 1.00 mg/kg): 580 ng/mL

Continued, in another order:

- DC50 [5]: 0.9 nM
Structure (SMILES): Cc1nn(C2CCC(=O)NC2=O)c2cccc(N3CC4CN(C[C@H]5CC[C@H](n6cc7cc(NC(=O)c8cnn9cccnc89)c(N(C)C)cc7n6)CC5)CC4C3)c12 (stereo partly drawn) [TM-102]
- IC50 [3]: 5.94 nM

- DC50 [5]: 0.044 nM
Structure (SMILES): Cc1nn(C2CCC(=O)NC2=O)c2cncc(N3CCC(CN4CCC(n5cc6cc(NC(=O)c7cnn8cccnc78)c(N(C)C)cc6n5)CC4)CC3)c12 (stereo not drawn) [TM-106]
- IC50 [3]: 54.9 nM

- DC50 [5]: 1.06 nM
Structure (SMILES): Cc1nn(C2CCC(=O)NC2=O)c2ccnc(N3CCC4(CC3)CN(C[C@H]3CC[C@H](n5cc6cc(NC(=O)c7cnn8cccnc78)c(N(C)C)cc6n5)CC3)C4)c12 (stereo partly drawn) [TM-113]
- IC50 [3]: 0.62 nM
